Results taken from PubChem BioAssay AID328 (DTP/NCI, 2004).
Several values for one entry are separate records, joined by “and”; a condition that tells them apart may be missing. Identical values can stand only once. Toxic doses and inconclusive results are not listed. How the source made its calls: active means survival T/C of 150% or more; inactive means T/C below 125% in these data.

Test system: BDF1 mice, P388 leukemia ip, median survival T/C
Assay: NCI In Vivo Anticancer Drug Screen. Data for tumor model P388 Leukemia (intraperitoneal) in B6D2F1 (BDF1) mice
Details: endpoint: median survival time, higher = longer survival
Summary of the method: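 Read-out is survival of treated animals expressed relative to the vehicle group, as a T/C ratio.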

[1] = dose: 50.0 mg/kg/injection, schedule: Q01DX009 (ip), vehicle: saline with Tween-80
[2] = dose: 100.0 mg/kg/injection, schedule: Q01DX009 (ip), vehicle: saline with Tween-80
[3] = dose: 100.0 mg/kg/injection, schedule: Q04DX003 (ip), vehicle: saline with Tween-80
[4] = dose: 200.0 mg/kg/injection, schedule: Q01DX009 (ip), vehicle: saline with Tween-80
[5] = dose: 200.0 mg/kg/injection, schedule: Q04DX003 (ip), vehicle: saline with Tween-80
[6] = dose: 400.0 mg/kg/injection, schedule: Q04DX003 (ip), vehicle: saline with Tween-80

Measured: T/C

CN(C)[C@@H]1C(=O)C(C(N)=O)=C(O)[C@]2(O)C(=O)C3C(=O)c4c(O)ccc(Cl)c4[C@](C)(O)[C@H]3C[C@@H]12 (some centres not stated)
inactive: dose: 33.0 mg/kg/injection, schedule: Q04DX003 (ip), vehicle: saline sonified 115 % of control

CCOC(=O)[C@]1(Br)CC[C@@]1(Br)C(=O)OCC
inactive: dose: 25.0 mg/kg/injection, schedule: Q01DX009 (ip), vehicle: saline with Tween-80 112 % of control | [1] 113 % of control and 114 % of control | [2] 117 % of control

ClCCCCCCCCc1ccccc1
inactive: dose: 12.5 mg/kg/injection, schedule: Q01DX009 (ip), vehicle: saline 102 % of control | dose: 25.0 mg/kg/injection, schedule: Q01DX009 (ip), vehicle: saline 100 % of control | dose: 44.0 mg/kg/injection, schedule: Q04DX003 (ip), vehicle: saline with Tween-80 122 % of control | dose: 50.0 mg/kg/injection, schedule: Q01DX009 (ip), vehicle: saline 107 % of control | dose: 66.0 mg/kg/injection, schedule: Q04DX003 (ip), vehicle: saline with Tween-80 100 % of control | dose: 100.0 mg/kg/injection, schedule: Q01DX009 (ip), vehicle: saline 100 % of control | [3] 118 % of control | dose: 200.0 mg/kg/injection, schedule: Q01DX009 (ip), vehicle: saline 108 % of control

NC(=O)NC(c1ccccc1)C(NC(N)=O)c1ccccc1 (configuration not stated)
inactive: [1] 110 % of control | [2] 104 % of control | [4] 91 % of control

CCCCCCC(c1c(O)cc(C)[nH]c1=O)c1c(O)cc(C)[nH]c1=O
inactive: [1] 96 % of control | [2] 96 % of control | [4] 90 % of control

O=C1CSC(=S)N1
inactive: [1] 122 % of control | [2] 122 % of control | [4] 104 % of control

N#CC1CCCC1=O (configuration not stated)
inactive: dose: 5.0 mg/kg/injection, schedule: Q01DX009 (ip), vehicle: saline 108 % of control | dose: 10.0 mg/kg/injection, schedule: Q01DX009 (ip), vehicle: saline 91 % of control

O=c1cc[nH]c(=O)o1
active: dose: 19.0 mg/kg/injection, schedule: Q01DX009 (ip), vehicle: water 157 % of control | dose: 28.0 mg/kg/injection, schedule: Q01DX009 (ip), vehicle: water 169 % of control | dose: 42.0 mg/kg/injection, schedule: Q01DX009 (ip), vehicle: water 168 % of control
inactive: dose: 63.0 mg/kg/injection, schedule: Q01DX009 (ip), vehicle: water 94 % of control

CCCC(O)C1CCCCC1O (configuration not stated)
inactive: [3] 100 % of control | [5] 100 % of control | [6] 100 % of control

[CH3][Hg][Cl]
inactive: dose: 0.25 mg/kg/injection, schedule: Q01DX009 (ip), vehicle: saline 109 % of control | dose: 0.5 mg/kg/injection, schedule: Q01DX009 (ip), vehicle: saline 100 % of control | dose: 1.0 mg/kg/injection, schedule: Q01DX009 (ip), vehicle: saline 100 % of control

CCOc1ccn(CC(=O)c2ccc([N+](=O)[O-])o2)c(=O)n1
inactive: [1] 100 % of control | [2] 101 % of control

C[N+](C)(CCc1ccccc1)CC(O)COc1ccccc1 (configuration not stated)
inactive: dose: 9.5 mg/kg/injection, schedule: Q01DX009 (ip), vehicle: Klucel (hydroxypropylcellulose) (HPC) 96 % of control | dose: 9.5 mg/kg/injection, schedule: Q04DX003 (ip), vehicle: Klucel (hydroxypropylcellulose) (HPC) 95 % of control | dose: 19.0 mg/kg/injection, schedule: Q01DX009 (ip), vehicle: Klucel (hydroxypropylcellulose) (HPC) 96 % of control | dose: 19.0 mg/kg/injection, schedule: Q04DX003 (ip), vehicle: Klucel (hydroxypropylcellulose) (HPC) 95 % of control | dose: 38.0 mg/kg/injection, schedule: Q04DX003 (ip), vehicle: Klucel (hydroxypropylcellulose) (HPC) 100 % of control

N#CC1C=Cc2ccccc2N1C(=O)Oc1ccccc1 (configuration not stated)
inactive: [1] 110 % of control | dose: 100.0 mg/kg/injection, schedule: Q01DX001 (ip), vehicle: other 100 % of control | [2] 100 % of control | [3] 95 % of control | dose: 200.0 mg/kg/injection, schedule: Q01DX001 (ip), vehicle: other 109 % of control | [4] 110 % of control | [5] 100 % of control | dose: 400.0 mg/kg/injection, schedule: Q01DX001 (ip), vehicle: other 90 % of control | [6] 113 % of control

CC(C)(O)c1ccccc1S(=O)(=O)c1ccccc1C(C)(C)O
inactive: dose: 100.0 mg/kg/injection, schedule: Q04DX002 (ip), vehicle: saline with Tween-80 94 % of control | dose: 200.0 mg/kg/injection, schedule: Q04DX002 (ip), vehicle: saline with Tween-80 93 % of control | dose: 400.0 mg/kg/injection, schedule: Q04DX002 (ip), vehicle: saline with Tween-80 89 % of control
